Results reported in BigSolDB 2.1.

CN(C/C=C/C#CC(C)(C)C)Cc1cccc2ccccc12.Cl
solubility (mole fraction)
Conditions | 283.15 K | 288.15 K | 293.15 K | 298.15 K | 303.15 K | 308.15 K | 313.15 K | 318.15 K | 323.15 K
in DMSO | – | – | 0.0199 | 0.0226 | 0.0252 | 0.0284 | 0.0319 | 0.0354 | 0.0401
in acetonitrile | 0.0013 | 0.00153 | 0.00179 | 0.00213 | 0.00254 | 0.00304 | 0.00377 | 0.00455 | 0.00532
in cyclohexanol | – | – | – | – | 0.0381 | 0.048 | 0.0556 | 0.0654 | 0.0774
in ethanol | 0.0198 | 0.0222 | 0.0245 | 0.0298 | 0.0342 | 0.0414 | 0.0493 | 0.0572 | 0.0678
in isobutanol | 0.0101 | 0.0128 | 0.0159 | 0.0213 | 0.0276 | 0.0354 | 0.045 | 0.0559 | 0.0693
in isooctanol | 0.00196 | 0.00403 | 0.00498 | 0.00649 | 0.00867 | 0.0109 | 0.0143 | 0.0178 | 0.0221
in isopentanol | 0.0073 | 0.00942 | 0.0118 | 0.0149 | 0.0189 | 0.0242 | 0.0298 | 0.0389 | 0.0493
in isopropanol | 0.0031 | 0.00391 | 0.00487 | 0.00627 | 0.00831 | 0.0106 | 0.0144 | 0.0183 | 0.0245
in n-butanol | 0.0123 | 0.0168 | 0.0217 | 0.0251 | 0.0313 | 0.0377 | 0.0466 | 0.0568 | 0.0685
in n-hexanol | 0.00683 | 0.00916 | 0.0115 | 0.0148 | 0.0185 | 0.0229 | 0.0291 | 0.0373 | 0.0469
in n-pentanol | 0.0158 | 0.0208 | 0.0255 | 0.0304 | 0.0357 | 0.0428 | 0.0511 | 0.0601 | 0.0697
in n-propanol | 0.0194 | 0.0214 | 0.0233 | 0.027 | 0.0351 | 0.0427 | 0.0519 | 0.0615 | 0.0735
in sec-butanol | 0.0037 | 0.0047 | 0.00608 | 0.0077 | 0.00999 | 0.0133 | 0.0176 | 0.0227 | 0.0288
